# Laboratory results from patent US7351882B2, “Canola line 45H24” (Pioneer Hi-Bred International, Inc., priority 2005, dated 2008).
# Tested on: Brassica napus variety 45H24
# Assay: Herbicide resistance rating of canola variety 45H24 at standard recommended application rates
# Assay type: in vivo
# Conditions: for Herbicide resistance (description): result in words
# Description: Herbicide Resistance: Resistance to various herbicides when applied at standard recommended application rates is expressed on a scale of 1 (resistant), 2 (tolerant), or 3 (susceptible).
smiles,measurement,setting,value
O=C(O)CNCP(=O)(O)O [Glyphosate],Herbicide resistance (description),,resistant
same,Herbicide resistance (description),listed as glyphosate,resistance
same,Herbicide resistance (mean rating),"scale 0 = not tested, 1 = resistant, 2 = tolerant, 3 = susceptible",1.00
